Measured values: patent publication US9650339B2, “Inhibitors of histone demethylases” (Gilead Sciences, Inc., priority 2013, dated 2017)

Assays:
KDM4A (JMJD2A) = molecular target: T1, KDM4A (JMJD2A) (Homo sapiens, UniProt O75164); test: Histone lysine demethylase AlphaLISA assay, KDM4A; assay type: biochemical; conditions: read-out: KDM4A HDME Inhibition IC50
T1 construct: 1-350; purchased BPS Bioscience, US; host or cells: E. coli
T1 sequence (O75164 1-350): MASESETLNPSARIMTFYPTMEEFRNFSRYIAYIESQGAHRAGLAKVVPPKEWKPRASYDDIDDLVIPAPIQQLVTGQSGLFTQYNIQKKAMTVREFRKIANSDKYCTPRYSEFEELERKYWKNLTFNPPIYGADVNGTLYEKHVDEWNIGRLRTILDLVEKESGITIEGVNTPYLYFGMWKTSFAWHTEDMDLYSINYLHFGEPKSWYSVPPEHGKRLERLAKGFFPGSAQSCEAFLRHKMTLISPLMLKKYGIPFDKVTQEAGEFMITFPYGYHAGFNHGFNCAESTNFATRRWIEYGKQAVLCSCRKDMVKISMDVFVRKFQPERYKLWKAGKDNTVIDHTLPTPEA
Method in brief: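 Enzyme 10 min pre-incubation; + compound (3% DMSO soln) 10 min; + biotin-H3 methyl-Lys peptide, 25 μM L-Asc, 10 μM α-KG, RT. Read: AlphaLISA acceptor beads, then streptavidin donor beads, RT, dark.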

KDM4C = molecular target: T2, KDM4C (Homo sapiens, UniProt Q9H3R0); test: Histone lysine demethylase immunofluorescence assay, U2OS cells transfected with KDM4C; assay type: cell-based; conditions: U2OS cells transfected with pCMVHA KDM4C; mark detected H3K9me3; 20 hours
T2 construct: Full length; host or cells: U2OS
T2 sequence (Q9H3R0 1-1056): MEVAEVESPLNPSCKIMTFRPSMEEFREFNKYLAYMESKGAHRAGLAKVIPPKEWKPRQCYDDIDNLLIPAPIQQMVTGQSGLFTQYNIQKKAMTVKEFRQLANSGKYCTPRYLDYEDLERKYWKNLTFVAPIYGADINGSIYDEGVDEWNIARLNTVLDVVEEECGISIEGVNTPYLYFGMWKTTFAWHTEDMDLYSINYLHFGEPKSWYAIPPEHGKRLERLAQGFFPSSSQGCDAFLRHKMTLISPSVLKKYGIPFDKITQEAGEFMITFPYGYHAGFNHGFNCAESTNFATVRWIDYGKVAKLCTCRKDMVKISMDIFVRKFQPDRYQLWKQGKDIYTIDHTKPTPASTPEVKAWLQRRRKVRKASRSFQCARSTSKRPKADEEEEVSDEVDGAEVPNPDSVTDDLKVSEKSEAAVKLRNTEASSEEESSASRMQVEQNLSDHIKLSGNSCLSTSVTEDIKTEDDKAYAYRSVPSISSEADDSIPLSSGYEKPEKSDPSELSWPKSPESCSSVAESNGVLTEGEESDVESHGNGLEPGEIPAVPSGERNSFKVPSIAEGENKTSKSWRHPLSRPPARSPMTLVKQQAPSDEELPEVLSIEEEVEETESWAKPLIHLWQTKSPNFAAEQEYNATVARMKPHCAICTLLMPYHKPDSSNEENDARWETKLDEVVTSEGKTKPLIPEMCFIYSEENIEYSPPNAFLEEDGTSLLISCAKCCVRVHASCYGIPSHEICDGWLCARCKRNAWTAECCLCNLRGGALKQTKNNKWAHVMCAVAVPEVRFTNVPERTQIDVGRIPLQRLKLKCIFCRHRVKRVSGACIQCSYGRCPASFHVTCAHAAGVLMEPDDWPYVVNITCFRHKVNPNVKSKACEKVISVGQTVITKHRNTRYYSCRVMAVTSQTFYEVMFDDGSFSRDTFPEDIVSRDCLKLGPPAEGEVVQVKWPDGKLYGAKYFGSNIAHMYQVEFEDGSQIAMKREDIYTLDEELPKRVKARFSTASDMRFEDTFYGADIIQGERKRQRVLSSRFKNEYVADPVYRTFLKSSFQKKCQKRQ
Method in brief: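 U2OS cells were transiently transfected with HA-tagged demethylase and reseeded after 6 h into compound-containing DMEM/10% FBS for 20 h. Cells were fixed in formaldehyde and immunostained for HA and the relevant histone methyl mark, then imaged. IC50 is based on mean mark staining in HA+ transfected cells.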

Row | SMILES | IC50 (KDM4A (JMJD2A)) | IC50 (KDM4C)
1 | CN1CCN(C(=O)CNCc2cc(C=O)ccn2)CC1 [Compound 103, 2-({[2-(4-methylpiperazin-1-yl)-2-oxoethyl]-amino}methyl)-pyridine-4-carbaldehyde] | > 2500 nM | > 2500 nM
2 | CCN(CC)C(=O)CNCc1cc(C=O)ccn1 [Compound 105, N,N-diethyl-2-{[(4-formylpyridin-2-yl)methyl]amino}-acetamide] | > 2500 nM | > 2500 nM
3 | O=Cc1ccnc(CNCC(=O)N2CCC(Cc3ccccc3)CC2)c1 [Compound 106, 2-({[2-(4-benzylpiperidin-1-yl)-2-oxoethyl]-amino}methyl)-pyridine-4-carbaldehyde] | 250 to 2500 nM | > 2500 nM
4 | CCN(CC)CCCCNCc1cc(C=O)ccn1 [Compound 107, 2-({[4-(diethylamino)-butyl]amino}-methyl)pyridine-4-carbaldehyde] | > 2500 nM | 250 to 2500 nM
5 | CN(C)CCCCNCc1cc(C=O)ccn1 [Compound 108, 2-({[4-(dimethylamino)-butyl]amino}methyl)-pyridine-4-carbaldehyde] | > 2500 nM | 250 to 2500 nM
6 | CN(C)CCNCc1cc(C=O)ccn1 [Compound 110, 2-({[2-(dimethylamino)-ethyl]amino}methyl)-pyridine-4-carbaldehyde] | 250 to 2500 nM | > 2500 nM
7 | CCN(CC)CCCCNC(=O)CNCc1cc(C=O)ccn1 [Compound 112, N-[4-(diethylamino)-butyl]-2-{[(4-formylpyridin-2-yl)methyl]amino}-acetamide] | < 250 nM | > 2500 nM
8 | CN(C)CCCCCNCc1cc(C=O)ccn1 [Compound 114, 2-({[5-(dimethylamino)-pentyl]amino}methyl)-pyridine-4-carbaldehyde] | > 2500 nM | > 2500 nM
9 | CCN(CC)CCCCN(Cc1cc(C=O)ccn1)C(=O)C(F)(F)F [Compound 115, N-[4-(diethylamino)butyl]-2,2,2-trifluoro-N-[(4-formylpyridin-2-yl)methyl]acetamide] | 250 to 2500 nM | 250 to 2500 nM
